What all share (format): functional
Assay [1] has as its system Helicoverpa armigera. The experiment in a line: Insecticidal activity against third-instar larval stage of Helicoverpa armigera fed with artificial diet containing compound assessed as mortality at LC30 concentration measured at 24 hr intervals beginning at 24 hr after initial drug exposure.
Assay [2] relates to Helicoverpa armigera. The assay can be described thus: Insecticidal activity against third-instar larval stage of Helicoverpa armigera fed with artificial diet containing compound assessed as increase in larval development time at LC30 concentration incubated for 24 hr.
For assay [3], the system named is Helicoverpa armigera. The experiment in a line: Insecticidal activity against Helicoverpa armigera fed with artificial diet containing compound assessed as mortality at LC30 concentration measured at 24 hr intervals beginning at 24 hr after initial drug exposure.
Assay [4] relates to Helicoverpa armigera. The assay can be described thus: Insecticidal activity against Helicoverpa armigera pupae assessed as increase in pupal development time at LC30 concentration treated during third-instar larval stage for 24 hr.
Assay [5] has as its system Helicoverpa armigera. The experiment in a line: Insecticidal activity against Helicoverpa armigera adults emerged from compound-treated third-instar larval stage assessed as decrease in fecundity rate at LC30 concentration. Also on record: scale not given: the % may be the effect or the level left.
The subject of assay [6] is Helicoverpa armigera. The assay can be described thus: Insecticidal activity against Helicoverpa armigera adults emerged from compound-treated third-instar larval stage assessed as decrease in longevity rate at LC30 concentration. Also on record: scale not given: the % may be the effect or the level left.
The subject of assay [7] is Helicoverpa armigera. The experiment in a line: Insecticidal activity against third-instar larval stage of Helicoverpa armigera fed with artificial diet containing compound assessed as mortality measured at 24 hr intervals beginning at 24 hr after initial drug exposure. The settings on record: for LC50: Helicoverpa armigera, Instar larval stage, 24 h.
Assay [8] has as its system Helicoverpa armigera. The assay can be described thus: Insecticidal activity against Helicoverpa armigera assessed as pupal weight at LC30 concentration treated during third-instar larval stage for 24 hr (reference value: 311 +/-9 mg).

The structures appear in SMILES notation. ≈ marks a conversion by molar mass, not a printed value.

As for `COc1cccc(C(=O)NN(C(=O)c2cc(C)cc(C)c2)C(C)(C)C)c1C` [METHOXYFENOZIDE], the mortality in the assay on Helicoverpa armigera [1] and in the assay on Helicoverpa armigera [3] was 32% in each case. In addition, the Time turned out to be 2.1 days in the assay on Helicoverpa armigera [2] and 2.3 days in the assay on Helicoverpa armigera [4]. The Activity with Helicoverpa armigera [5] was 35%; in the assay on Helicoverpa armigera [6] it was 27.5%; with Helicoverpa armigera [8] it was 253 mg. In addition, the LC30 in the assay with Helicoverpa armigera [7] is reported as 148 ppm. In the assay with Helicoverpa armigera [7], the LC90 worked out at 560 ppm. Also, the LC50 – broadly, the concentration lethal to half of the exposed cells or organisms – with Helicoverpa armigera [7] was found to be 218 µg/mL (≈ 592 µM).

For `CS/C(C)=N\OC(=O)N(C)SN(C)C(=O)O/N=C(\C)SC` [THIODICARB], the mortality in the assay on Helicoverpa armigera [1] and with Helicoverpa armigera [3] was 20% in each case. Moreover, the Time stood at 5.3 days with Helicoverpa armigera [2] and 0.5 days in the assay on Helicoverpa armigera [4]. Also, the Activity in the assay on Helicoverpa armigera [5] is 30%; in the assay on Helicoverpa armigera [6] it was 23%; in the assay with Helicoverpa armigera [8], 294 mg. Besides, the LC30 with Helicoverpa armigera [7] stood at 550 ppm. For the same compound, the LC90 in the assay on Helicoverpa armigera [7] amounted to 1987 ppm. The 50% lethal concentration (LC50) in the assay on Helicoverpa armigera [7] turned out to be 798 µg/mL (≈ 2250 µM).

For the origin of these results see ChEMBL document CHEMBL3046391, “Acute toxicity and sublethal effects of methoxyfenozide and thiodicarb on survival, development and reproduction of Helicoverpa armigera (Lepidoptera: Noctuidae)” (2013).
